{"source": "ChEMBL document CHEMBL1641363", "about": "“Fragment-based discovery of 6-substituted isoquinolin-1-amine based ROCK-I inhibitors” (Bioorg Med Chem Lett, 2011)", "key": {"[1]": {"target": "Serine/threonine-protein kinase SIK2 (Homo sapiens) (UniProt Q9H0K1)", "details": "10 uM", "description": "Inhibition of SNFILK2 at 10 uM"}, "[2]": {"target": "Serine/threonine-protein kinase PLK3 (Homo sapiens) (UniProt Q9H4B4)", "details": "10 uM", "description": "Inhibition of PLK3 at 10 uM"}, "[3]": {"target": "T1, Ephrin type-A receptor 8 (Homo sapiens) (UniProt P29322)", "T1 sequence (whole entry)": "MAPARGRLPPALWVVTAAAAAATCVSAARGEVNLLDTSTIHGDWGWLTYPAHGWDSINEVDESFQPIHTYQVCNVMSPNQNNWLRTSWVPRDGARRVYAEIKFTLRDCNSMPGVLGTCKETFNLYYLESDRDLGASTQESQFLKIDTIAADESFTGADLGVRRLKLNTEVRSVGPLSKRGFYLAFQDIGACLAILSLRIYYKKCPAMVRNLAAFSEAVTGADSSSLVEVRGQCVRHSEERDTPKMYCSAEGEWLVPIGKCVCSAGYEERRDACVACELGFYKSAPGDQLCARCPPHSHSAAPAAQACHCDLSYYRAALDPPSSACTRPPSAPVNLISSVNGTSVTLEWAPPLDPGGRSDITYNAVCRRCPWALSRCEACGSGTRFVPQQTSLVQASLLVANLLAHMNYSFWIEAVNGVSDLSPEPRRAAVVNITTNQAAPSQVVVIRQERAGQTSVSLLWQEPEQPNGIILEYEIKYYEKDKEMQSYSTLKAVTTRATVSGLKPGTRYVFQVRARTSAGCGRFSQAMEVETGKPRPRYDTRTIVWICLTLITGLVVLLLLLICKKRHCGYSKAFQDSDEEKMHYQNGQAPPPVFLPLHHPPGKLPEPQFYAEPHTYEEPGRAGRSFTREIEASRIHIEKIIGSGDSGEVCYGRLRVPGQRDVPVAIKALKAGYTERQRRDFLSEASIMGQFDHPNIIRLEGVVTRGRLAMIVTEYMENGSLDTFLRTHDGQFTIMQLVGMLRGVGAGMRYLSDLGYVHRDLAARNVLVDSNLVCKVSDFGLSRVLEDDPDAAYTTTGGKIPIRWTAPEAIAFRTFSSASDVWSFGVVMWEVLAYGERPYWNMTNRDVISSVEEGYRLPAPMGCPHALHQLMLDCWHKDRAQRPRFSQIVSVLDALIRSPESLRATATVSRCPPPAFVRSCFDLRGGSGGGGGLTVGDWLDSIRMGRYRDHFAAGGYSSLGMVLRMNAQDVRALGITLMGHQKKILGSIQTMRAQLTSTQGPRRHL", "details": "10 uM", "description": "Inhibition of EPHA8 at 10 uM"}, "[4]": {"target": "Platelet-derived growth factor receptor alpha (Homo sapiens) (UniProt P16234)", "sequence (P16234 whole entry)": "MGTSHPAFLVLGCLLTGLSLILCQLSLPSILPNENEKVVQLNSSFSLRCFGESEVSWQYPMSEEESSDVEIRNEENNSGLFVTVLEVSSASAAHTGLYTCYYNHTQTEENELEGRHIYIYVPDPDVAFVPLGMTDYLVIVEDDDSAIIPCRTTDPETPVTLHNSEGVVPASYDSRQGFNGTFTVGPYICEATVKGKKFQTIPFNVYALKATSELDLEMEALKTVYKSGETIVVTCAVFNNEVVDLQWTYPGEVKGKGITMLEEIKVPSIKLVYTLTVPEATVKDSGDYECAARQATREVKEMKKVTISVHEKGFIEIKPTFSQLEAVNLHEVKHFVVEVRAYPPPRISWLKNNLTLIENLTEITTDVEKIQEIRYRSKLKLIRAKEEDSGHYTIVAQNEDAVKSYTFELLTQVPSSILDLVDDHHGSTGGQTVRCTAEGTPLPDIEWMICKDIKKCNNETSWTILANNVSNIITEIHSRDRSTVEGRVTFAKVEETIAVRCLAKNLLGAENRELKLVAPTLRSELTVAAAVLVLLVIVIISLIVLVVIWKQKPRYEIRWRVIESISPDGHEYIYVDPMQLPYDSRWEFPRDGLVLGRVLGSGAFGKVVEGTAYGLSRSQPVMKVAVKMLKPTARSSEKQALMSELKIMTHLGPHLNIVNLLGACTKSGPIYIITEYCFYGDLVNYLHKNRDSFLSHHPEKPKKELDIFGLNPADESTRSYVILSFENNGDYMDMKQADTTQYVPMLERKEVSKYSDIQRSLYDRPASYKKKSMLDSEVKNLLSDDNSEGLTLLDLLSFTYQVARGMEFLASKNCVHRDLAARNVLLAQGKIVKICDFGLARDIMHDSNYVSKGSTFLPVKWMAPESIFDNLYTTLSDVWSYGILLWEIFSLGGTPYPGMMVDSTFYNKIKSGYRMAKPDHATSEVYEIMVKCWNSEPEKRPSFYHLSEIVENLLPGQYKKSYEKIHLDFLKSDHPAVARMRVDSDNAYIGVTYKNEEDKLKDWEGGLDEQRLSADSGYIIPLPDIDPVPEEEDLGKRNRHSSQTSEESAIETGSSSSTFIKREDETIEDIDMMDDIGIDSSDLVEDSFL", "details": "10 uM", "description": "Inhibition of PDGFRA at 10 uM"}, "[5]": {"assay": "Permeability from apical to basolateral side of human Caco2 cells", "format": "ADME, cell-based", "details": "Caco-2, read-out: permeability"}, "[6]": {"assay": "Permeability from basolateral to apical side of human Caco2 cells", "format": "ADME, cell-based", "details": "Caco-2, read-out: permeability"}, "[7]": {"target": "Mitogen-activated protein kinase kinase kinase kinase 4 (Homo sapiens) (UniProt O95819)", "details": "10 uM", "description": "Inhibition of HGK at 10 uM"}, "[8]": {"target": "T2, cAMP-dependent protein kinase catalytic subunit PRKX (Homo sapiens) (UniProt P51817)", "T2 sequence (whole entry)": "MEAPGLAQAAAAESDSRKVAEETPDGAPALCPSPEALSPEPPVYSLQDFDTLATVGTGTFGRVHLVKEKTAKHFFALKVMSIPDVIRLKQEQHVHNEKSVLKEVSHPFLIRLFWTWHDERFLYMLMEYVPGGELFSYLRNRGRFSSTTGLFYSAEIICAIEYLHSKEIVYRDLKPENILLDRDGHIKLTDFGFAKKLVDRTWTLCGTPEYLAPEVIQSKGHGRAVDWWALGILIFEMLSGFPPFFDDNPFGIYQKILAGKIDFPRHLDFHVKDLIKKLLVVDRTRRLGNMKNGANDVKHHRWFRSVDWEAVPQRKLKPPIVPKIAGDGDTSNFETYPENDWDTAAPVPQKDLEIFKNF", "details": "10 uM", "description": "Inhibition of PRKX at 10 uM"}, "[9]": {"target": "Casein kinase I isoform alpha (Homo sapiens) (UniProt P48729)", "sequence (P48729 2-337 limits assumed)": "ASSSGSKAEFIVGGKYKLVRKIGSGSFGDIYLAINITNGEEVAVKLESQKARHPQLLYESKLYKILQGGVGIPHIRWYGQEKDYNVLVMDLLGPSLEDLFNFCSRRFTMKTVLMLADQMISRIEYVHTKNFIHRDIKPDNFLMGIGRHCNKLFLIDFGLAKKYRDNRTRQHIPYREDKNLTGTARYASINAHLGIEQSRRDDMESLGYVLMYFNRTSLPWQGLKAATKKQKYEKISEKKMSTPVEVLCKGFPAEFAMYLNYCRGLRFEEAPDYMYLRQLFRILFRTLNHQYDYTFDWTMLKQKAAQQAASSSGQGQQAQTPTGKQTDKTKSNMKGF", "details": "10 uM", "description": "Inhibition of CK1 at 10 uM"}, "[10]": {"target": "Voltage-gated inwardly rectifying potassium channel KCNH2 (Homo sapiens, UniProt Q12809)", "sequence (Q12809 whole entry)": "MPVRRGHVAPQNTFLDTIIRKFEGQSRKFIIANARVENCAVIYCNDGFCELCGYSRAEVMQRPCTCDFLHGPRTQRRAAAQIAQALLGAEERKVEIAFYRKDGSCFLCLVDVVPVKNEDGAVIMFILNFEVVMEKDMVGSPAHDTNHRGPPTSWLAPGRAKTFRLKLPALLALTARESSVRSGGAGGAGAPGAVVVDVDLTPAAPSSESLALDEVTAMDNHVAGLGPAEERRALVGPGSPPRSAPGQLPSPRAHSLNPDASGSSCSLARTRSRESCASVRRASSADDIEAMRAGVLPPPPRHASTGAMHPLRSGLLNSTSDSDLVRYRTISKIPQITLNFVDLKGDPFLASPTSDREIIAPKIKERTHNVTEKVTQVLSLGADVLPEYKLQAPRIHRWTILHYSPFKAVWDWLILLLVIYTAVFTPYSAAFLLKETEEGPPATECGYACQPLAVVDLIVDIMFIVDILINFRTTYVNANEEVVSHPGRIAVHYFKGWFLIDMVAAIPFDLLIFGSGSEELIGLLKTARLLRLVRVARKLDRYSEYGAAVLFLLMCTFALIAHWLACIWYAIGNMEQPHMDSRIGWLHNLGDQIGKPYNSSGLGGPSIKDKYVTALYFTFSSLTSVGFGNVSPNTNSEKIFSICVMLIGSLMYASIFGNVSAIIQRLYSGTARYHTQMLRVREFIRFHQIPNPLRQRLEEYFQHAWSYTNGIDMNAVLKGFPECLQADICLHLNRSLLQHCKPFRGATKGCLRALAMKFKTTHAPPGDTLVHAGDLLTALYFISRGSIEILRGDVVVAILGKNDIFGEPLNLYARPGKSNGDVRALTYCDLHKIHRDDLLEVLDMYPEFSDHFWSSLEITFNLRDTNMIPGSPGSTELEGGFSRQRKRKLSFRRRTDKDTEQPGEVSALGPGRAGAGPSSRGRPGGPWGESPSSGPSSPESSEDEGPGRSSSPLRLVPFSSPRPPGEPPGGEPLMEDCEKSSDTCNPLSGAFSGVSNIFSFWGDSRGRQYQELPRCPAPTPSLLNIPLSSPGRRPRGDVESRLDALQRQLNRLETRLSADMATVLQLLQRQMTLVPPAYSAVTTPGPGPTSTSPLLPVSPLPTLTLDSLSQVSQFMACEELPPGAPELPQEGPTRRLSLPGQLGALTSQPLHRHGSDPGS", "assay": "Displacement of [3H]dofetilide from human ERG"}, "[11]": {"assay": "Half life in human liver microsome", "format": "ADME", "details": "liver microsomes"}, "[12]": {"target": "Rho-associated protein kinase 1 (Homo sapiens, UniProt Q13464)", "details": "10 uM", "description": "Inhibition of ROCK1 at 10 uM"}, "[13]": {"assay": "Half life in mouse liver microsome", "format": "ADME", "details": "liver microsomes"}, "[14]": {"assay": "Plasma clearance in C57 mouse", "format": "ADME, organism-based"}, "[15]": {"target": "Angiopoietin-1 receptor (Homo sapiens) (UniProt Q02763)", "sequence (Q02763 whole entry)": "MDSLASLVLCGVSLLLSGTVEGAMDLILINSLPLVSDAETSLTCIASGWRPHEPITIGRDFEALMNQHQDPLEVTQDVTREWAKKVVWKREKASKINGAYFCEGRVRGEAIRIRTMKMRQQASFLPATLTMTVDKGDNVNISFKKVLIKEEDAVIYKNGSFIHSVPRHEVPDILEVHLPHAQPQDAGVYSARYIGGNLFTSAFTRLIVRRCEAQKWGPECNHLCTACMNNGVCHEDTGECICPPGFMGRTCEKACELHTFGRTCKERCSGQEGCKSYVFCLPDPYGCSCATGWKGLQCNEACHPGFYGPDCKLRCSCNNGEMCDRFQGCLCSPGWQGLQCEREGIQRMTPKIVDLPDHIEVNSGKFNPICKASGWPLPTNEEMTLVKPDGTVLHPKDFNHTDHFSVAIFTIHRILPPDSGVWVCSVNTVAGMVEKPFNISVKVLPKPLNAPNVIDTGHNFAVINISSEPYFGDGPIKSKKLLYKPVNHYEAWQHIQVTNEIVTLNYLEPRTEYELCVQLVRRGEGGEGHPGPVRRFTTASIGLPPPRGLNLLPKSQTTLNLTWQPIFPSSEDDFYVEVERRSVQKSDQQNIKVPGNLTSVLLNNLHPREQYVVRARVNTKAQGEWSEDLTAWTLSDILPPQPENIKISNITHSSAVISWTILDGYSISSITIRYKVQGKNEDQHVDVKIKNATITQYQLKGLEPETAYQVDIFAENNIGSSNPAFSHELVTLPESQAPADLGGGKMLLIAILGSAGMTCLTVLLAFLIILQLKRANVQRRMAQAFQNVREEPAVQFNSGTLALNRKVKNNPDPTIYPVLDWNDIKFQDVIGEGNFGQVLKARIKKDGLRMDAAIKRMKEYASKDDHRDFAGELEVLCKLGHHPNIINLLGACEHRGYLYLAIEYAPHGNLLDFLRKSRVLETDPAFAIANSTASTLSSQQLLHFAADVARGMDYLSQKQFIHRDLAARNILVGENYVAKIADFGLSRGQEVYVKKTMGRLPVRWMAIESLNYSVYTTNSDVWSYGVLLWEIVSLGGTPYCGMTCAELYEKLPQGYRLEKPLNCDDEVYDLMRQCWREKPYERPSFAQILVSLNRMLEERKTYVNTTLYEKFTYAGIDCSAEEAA", "details": "10 uM", "description": "Inhibition of Tie2 at 10 uM"}, "[16]": {"assay": "Oral bioavailability in C57 mouse", "format": "ADME, organism-based", "details": "in vivo"}, "[17]": {"assay": "Half life in rat hepatocyte", "format": "ADME, cell-based, Liver", "details": "hepatocytes"}, "[18]": {"target": "Proto-oncogene tyrosine-protein kinase receptor Ret (Homo sapiens) (UniProt P07949)", "sequence (P07949 whole entry)": "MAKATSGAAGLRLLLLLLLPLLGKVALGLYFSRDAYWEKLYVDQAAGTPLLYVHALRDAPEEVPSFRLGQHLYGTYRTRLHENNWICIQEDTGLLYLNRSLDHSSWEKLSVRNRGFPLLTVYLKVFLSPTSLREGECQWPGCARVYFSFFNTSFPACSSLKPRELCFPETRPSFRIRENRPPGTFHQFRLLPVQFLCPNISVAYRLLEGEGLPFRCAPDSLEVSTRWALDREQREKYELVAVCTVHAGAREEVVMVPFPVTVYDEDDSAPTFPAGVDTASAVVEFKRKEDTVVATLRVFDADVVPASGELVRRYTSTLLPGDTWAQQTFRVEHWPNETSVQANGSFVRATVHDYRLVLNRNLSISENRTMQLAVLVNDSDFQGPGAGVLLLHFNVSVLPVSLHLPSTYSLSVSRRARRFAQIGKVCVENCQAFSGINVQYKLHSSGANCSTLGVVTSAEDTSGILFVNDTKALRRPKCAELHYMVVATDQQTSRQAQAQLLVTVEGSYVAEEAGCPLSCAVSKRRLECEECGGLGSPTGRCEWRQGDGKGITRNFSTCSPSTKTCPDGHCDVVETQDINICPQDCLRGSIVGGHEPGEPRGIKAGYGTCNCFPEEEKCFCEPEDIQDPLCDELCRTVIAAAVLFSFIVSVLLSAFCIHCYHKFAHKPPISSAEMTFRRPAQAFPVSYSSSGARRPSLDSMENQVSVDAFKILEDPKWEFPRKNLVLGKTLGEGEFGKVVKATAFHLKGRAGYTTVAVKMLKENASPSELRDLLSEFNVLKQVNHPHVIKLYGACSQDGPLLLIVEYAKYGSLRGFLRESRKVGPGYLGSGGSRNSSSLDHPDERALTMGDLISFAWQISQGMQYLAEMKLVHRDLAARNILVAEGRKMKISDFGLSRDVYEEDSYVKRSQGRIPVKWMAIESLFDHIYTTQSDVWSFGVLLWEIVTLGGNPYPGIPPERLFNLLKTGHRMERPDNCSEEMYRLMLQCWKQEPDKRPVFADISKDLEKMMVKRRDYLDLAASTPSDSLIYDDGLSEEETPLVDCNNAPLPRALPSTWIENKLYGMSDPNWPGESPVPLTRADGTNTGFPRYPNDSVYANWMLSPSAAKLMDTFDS", "details": "10 uM", "description": "Inhibition of RET at 10 uM"}}, "note": "pKi: −log10 of the molar value.", "data": [{"smiles": "Nc1nccc2cc(O[C@H]3CCCNC3)ccc12", "values": [{"measurement": "inhibition", "setting": "[1]", "result": "> 80", "unit": "%"}, {"measurement": "inhibition", "setting": "[2]", "result": "> 80", "unit": "%"}, {"measurement": "inhibition", "setting": "[3]", "result": "> 80", "unit": "%"}, {"measurement": "inhibition", "setting": "[4]", "result": "> 80", "unit": "%"}, {"measurement": "Papp A→B", "setting": "[5]", "result": 6.3, "unit": "×10⁻⁶ cm/s"}, {"measurement": "Papp B→A", "setting": "[6]", "result": 3.6, "unit": "×10⁻⁶ cm/s"}, {"measurement": "inhibition", "setting": "[7]", "result": "> 80", "unit": "%"}, {"measurement": "inhibition", "setting": "[8]", "result": "> 80", "unit": "%"}, {"measurement": "inhibition", "setting": "[9]", "result": "> 80", "unit": "%"}, {"measurement": "pKi", "setting": "[10]", "result": 4.70}, {"measurement": "half-life", "setting": "[11]", "result": "> 120", "unit": "min"}, {"measurement": "inhibition", "setting": "[12]", "result": "> 80", "unit": "%"}, {"measurement": "half-life", "setting": "[13]", "result": "> 120", "unit": "min"}, {"measurement": "clearance", "setting": "[14]", "result": 9.5, "unit": "mL/min/kg"}, {"measurement": "inhibition", "setting": "[15]", "result": "> 80", "unit": "%"}, {"measurement": "bioavailability", "setting": "[16]", "result": "> 75", "unit": "%"}, {"measurement": "half-life", "setting": "[17]", "result": 70, "unit": "min"}, {"measurement": "inhibition", "setting": "[18]", "result": "> 80", "unit": "%"}]}]}
